From patent US9345703B2, “Kappa opioid receptor effectors and uses thereof” (University of Kansas, priority 2011, dated 2016)
Values after ≈ are worked out from the molar mass of the structure shown.

Tests used:
[1] = Plasma protein binding, human; assay type: in vitro ADME
Source text: (§1) Plasma protein binding is a measure of a drug's efficiency to bind to the proteins within blood plasma. The less bound a drug is, the more efficiently it can traverse cell membranes or diffuse. Highly plasma protein bound rugs are confined to the vascular space, thereby having a relatively low volume of distribution. In contrast, drugs that remain largely unbound in plasma are generally available for distribution to other organs and tissues. In the instant case, the Chemotype I antagonist 1{3} was marginally available with 88.46% and 80.07% bound to 1 μM and 10 μM mouse plasma protein, respectively, and 93.96% and 88.54% bound to 1 μM and 10 μM human plasma protein, respectively.

physchem = experiment: physchem
Experimental: In addition to profiling the selectivity of this class of KOR ligands, basic pharmacological properties were assessed.

MOR = MOR (Homo sapiens, UniProt P35372); experiment: PDSP radioligand binding assay
Experimental: (§2) The broader selectivity of compound 1{3} was tested against additional targets and basic pharmacological properties were assessed. […] The compound was initially screened in radioligand binding assays at a constant concentration (10 μM) to identify possible activity of the compound. Results showing significant activity in the initial screen were selected for Ki determinations.
(§3) As a representative of the Chemotype II series, the MLPCN probe molecule 2{8} was subjected to a binding assay panel of 44 GPCR and other molecular targets by the Pyschoactive Drug Screening Program (PDSP) (Table 10). The compound was initially screened in a radioligand binding assay at a constant concentration (10 μM) to identify possible activity of the compound. Results showing significant activity in the initial screen were selected for Ki determinations.

D3 = D3 (Homo sapiens, UniProt P35462); experiment: PDSP radioligand binding assay
Experimental: as §2, §3

DOR = DOR (Homo sapiens, UniProt P41143); experiment: PDSP radioligand binding assay
Experimental: as §2, §3

[2] = Plasma protein binding, mouse; assay type: in vitro ADME
Source text: as §1

M1 = M1 (Homo sapiens, UniProt P11229); experiment: PDSP radioligand binding assay
Experimental: (§4) The compound was initially screened in radioligand binding assays at a constant concentration (10 μM) to identify possible activity of the compound. Results showing significant activity in the initial screen were selected for Ki determinations.
as §3

NET = NET (Homo sapiens, UniProt P23975); experiment: PDSP radioligand binding assay
Experimental: as §4, §3

BZP Rat Brain Site = experiment: PDSP radioligand binding assay
Experimental: as §4, §3

Alpha2A = Alpha2A (Homo sapiens, UniProt P08913); experiment: PDSP radioligand binding assay
Experimental: as §4, §3

H2 = H2 (Homo sapiens, UniProt P25021); experiment: PDSP radioligand binding assay
Experimental: as §4, §3

H1 = H1 (Homo sapiens, UniProt P35367); experiment: PDSP radioligand binding assay
Experimental: as §4, §3

D5 = D5 (Homo sapiens, UniProt P21918); experiment: PDSP radioligand binding assay
Experimental: as §4, §3

5ht6 = 5ht6 (Homo sapiens, UniProt P50406); experiment: PDSP radioligand binding assay
Experimental: as §4, §3

5ht1a = 5ht1a (Homo sapiens, UniProt P08908); experiment: PDSP radioligand binding assay
Experimental: as §4, §3

5ht5a = 5ht5a (Homo sapiens, UniProt P47898); experiment: PDSP radioligand binding assay
Experimental: as §4, §3

Beta3 = Beta3 (Homo sapiens, UniProt P13945); experiment: PDSP radioligand binding assay
Experimental: as §4, §3

Alpha1D = Alpha1D (Homo sapiens, UniProt P25100); experiment: PDSP radioligand binding assay
Experimental: as §4, §3

5ht2c = 5ht2c (Homo sapiens, UniProt P28335); experiment: PDSP radioligand binding assay
Experimental: as §4, §3

5ht2a = 5ht2a (Homo sapiens, UniProt P28223); experiment: PDSP radioligand binding assay
Experimental: as §4, §3

5ht1d = 5ht1d (Homo sapiens, UniProt P28221); experiment: PDSP radioligand binding assay
Experimental: as §4, §3

Beta2 = Beta2 (Homo sapiens, UniProt P07550); experiment: PDSP radioligand binding assay
Experimental: as §4, §3

Alpha2B = Alpha2B (Homo sapiens, UniProt P18089); experiment: PDSP radioligand binding assay
Experimental: as §4, §3

SERT = SERT (Homo sapiens, UniProt P31645); experiment: PDSP radioligand binding assay
Experimental: as §4, §3

H4 = H4 (Homo sapiens, UniProt Q9H3N8); experiment: PDSP radioligand binding assay
Experimental: as §4, §3

5ht1b = 5ht1b (Homo sapiens, UniProt P28222); experiment: PDSP radioligand binding assay
Experimental: as §4, §3

D4 = D4 (Homo sapiens, UniProt P21917); experiment: PDSP radioligand binding assay
Experimental: as §4, §3

5ht1e = 5ht1e (Homo sapiens, UniProt P28566); experiment: PDSP radioligand binding assay
Experimental: as §4, §3

Alpha1A = Alpha1A (Homo sapiens, UniProt P35348); experiment: PDSP radioligand binding assay
Experimental: as §4, §3

D2 = D2 (Homo sapiens, UniProt P14416); experiment: PDSP radioligand binding assay
Experimental: as §4, §3

5ht2b = 5ht2b (Homo sapiens, UniProt P41595); experiment: PDSP radioligand binding assay
Experimental: as §4, §3

GabaA = experiment: PDSP radioligand binding assay
Experimental: as §4, §3

M5 = M5 (Homo sapiens, UniProt P08912); experiment: PDSP radioligand binding assay
Experimental: as §4, §3

Sigma2 = Sigma2 (Rattus norvegicus, UniProt Q5U3Y7); experiment: PDSP radioligand binding assay
Experimental: as §4, §3

5ht7 = 5ht7 (Homo sapiens, UniProt P34969); experiment: PDSP radioligand binding assay
Experimental: as §4, §3

Beta1 = Beta1 (Homo sapiens, UniProt P08588); experiment: PDSP radioligand binding assay
Experimental: as §4, §3

[3] = Table 10, average of separate Ki determinations

Sequence of 5ht1a (P08908 whole entry, species assumed): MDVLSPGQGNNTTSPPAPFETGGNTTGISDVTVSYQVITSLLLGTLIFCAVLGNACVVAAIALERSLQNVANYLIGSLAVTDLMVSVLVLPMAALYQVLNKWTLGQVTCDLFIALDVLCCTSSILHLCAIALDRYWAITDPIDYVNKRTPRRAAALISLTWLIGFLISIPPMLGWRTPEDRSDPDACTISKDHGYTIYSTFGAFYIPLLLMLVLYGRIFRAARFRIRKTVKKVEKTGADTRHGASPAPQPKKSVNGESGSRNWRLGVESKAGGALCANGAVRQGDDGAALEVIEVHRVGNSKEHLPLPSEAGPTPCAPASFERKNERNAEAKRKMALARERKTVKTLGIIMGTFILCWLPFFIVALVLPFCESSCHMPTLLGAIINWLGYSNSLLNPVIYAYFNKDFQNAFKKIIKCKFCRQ
Sequence of Beta3 (P13945 whole entry): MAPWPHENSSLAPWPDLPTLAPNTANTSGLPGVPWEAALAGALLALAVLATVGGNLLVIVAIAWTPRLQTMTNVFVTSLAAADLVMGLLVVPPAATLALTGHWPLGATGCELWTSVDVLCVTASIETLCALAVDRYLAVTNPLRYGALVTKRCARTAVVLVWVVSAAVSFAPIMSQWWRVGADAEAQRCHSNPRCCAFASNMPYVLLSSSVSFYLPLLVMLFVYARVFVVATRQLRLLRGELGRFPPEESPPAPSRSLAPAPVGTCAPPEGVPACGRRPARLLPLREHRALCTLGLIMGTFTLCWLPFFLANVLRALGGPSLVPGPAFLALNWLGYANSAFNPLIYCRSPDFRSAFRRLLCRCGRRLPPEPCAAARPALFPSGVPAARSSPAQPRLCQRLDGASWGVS
Sequence of DOR (P41143 whole entry): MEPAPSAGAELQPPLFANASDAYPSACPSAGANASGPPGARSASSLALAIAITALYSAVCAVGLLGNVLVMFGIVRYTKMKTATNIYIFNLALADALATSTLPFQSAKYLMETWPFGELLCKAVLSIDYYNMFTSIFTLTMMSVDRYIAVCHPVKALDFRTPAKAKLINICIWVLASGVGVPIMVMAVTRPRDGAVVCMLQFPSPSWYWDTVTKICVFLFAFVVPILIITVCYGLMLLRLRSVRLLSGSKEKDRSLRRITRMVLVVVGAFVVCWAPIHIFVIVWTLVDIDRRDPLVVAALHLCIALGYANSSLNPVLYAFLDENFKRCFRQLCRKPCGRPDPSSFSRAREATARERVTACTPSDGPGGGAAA
Sequence of 5ht1b (P28222 whole entry, species assumed): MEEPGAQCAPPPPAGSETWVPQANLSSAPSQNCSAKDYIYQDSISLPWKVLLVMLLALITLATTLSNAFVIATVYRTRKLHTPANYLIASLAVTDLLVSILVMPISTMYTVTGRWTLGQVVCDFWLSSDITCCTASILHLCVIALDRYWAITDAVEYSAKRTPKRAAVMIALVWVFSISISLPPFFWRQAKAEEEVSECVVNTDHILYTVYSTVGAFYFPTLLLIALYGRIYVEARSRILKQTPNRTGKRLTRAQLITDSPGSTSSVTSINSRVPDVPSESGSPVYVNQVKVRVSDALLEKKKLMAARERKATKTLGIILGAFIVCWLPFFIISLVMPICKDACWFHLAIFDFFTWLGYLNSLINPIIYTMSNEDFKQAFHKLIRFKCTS
Sequence of Alpha1D (P25100 whole entry): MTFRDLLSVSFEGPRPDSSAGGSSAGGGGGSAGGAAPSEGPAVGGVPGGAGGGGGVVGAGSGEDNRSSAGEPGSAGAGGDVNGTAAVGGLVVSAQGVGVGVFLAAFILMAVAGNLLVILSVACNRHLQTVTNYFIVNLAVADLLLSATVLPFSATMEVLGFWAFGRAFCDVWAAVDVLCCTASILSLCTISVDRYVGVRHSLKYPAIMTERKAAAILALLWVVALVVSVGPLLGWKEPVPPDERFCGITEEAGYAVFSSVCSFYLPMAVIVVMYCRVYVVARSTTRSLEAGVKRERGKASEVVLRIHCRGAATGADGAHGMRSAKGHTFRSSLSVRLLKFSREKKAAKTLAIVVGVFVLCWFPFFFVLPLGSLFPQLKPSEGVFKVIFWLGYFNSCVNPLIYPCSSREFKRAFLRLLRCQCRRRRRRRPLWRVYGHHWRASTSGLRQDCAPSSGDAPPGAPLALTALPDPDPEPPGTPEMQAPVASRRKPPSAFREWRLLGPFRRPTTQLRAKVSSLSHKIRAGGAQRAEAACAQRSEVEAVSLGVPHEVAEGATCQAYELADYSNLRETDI
Sequence of Sigma2 (Q5U3Y7 whole entry): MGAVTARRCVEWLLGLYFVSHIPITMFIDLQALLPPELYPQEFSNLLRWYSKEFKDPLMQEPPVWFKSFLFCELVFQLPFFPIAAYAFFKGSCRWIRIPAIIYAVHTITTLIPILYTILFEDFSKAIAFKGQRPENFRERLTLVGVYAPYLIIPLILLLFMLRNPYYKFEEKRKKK
Sequence of Beta2 (P07550 whole entry): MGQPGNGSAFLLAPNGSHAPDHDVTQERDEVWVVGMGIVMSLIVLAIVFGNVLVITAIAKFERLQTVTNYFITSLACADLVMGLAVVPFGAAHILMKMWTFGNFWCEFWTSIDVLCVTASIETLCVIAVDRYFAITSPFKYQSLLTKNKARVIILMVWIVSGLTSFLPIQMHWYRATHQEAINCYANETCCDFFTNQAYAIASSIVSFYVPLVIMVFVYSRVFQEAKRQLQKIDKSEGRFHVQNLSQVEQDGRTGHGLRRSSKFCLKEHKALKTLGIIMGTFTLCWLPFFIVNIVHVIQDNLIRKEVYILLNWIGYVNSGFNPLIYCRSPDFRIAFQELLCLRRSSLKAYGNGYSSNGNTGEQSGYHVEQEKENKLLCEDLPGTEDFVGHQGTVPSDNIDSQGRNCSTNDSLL
Sequence of M1 (P11229 whole entry): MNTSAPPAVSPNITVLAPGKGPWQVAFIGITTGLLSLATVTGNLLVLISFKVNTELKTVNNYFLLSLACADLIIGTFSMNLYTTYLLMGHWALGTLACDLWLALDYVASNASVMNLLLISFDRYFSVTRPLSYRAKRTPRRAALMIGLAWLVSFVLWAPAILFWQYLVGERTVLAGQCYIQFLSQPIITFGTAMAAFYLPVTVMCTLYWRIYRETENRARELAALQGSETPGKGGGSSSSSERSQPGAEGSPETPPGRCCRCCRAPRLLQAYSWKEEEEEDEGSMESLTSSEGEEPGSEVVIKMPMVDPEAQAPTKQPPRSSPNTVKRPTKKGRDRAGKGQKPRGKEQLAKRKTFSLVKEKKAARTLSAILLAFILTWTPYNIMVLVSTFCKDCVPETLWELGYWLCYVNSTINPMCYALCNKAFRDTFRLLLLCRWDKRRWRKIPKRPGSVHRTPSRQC
Sequence of 5ht2a (P28223 whole entry, species assumed): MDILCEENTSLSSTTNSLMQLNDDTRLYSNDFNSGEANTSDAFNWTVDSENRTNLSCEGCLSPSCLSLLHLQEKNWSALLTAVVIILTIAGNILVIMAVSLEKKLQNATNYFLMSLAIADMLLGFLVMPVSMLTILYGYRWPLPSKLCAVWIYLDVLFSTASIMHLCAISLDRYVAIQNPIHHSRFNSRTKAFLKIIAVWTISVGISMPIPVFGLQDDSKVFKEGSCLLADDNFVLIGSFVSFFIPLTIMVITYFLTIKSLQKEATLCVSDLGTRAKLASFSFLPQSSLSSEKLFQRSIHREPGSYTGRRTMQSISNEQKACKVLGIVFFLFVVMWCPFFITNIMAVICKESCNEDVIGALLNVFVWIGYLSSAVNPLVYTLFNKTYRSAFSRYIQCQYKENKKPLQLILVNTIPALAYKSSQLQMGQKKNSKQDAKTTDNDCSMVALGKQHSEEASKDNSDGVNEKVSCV
Sequence of SERT (P31645 whole entry, species assumed): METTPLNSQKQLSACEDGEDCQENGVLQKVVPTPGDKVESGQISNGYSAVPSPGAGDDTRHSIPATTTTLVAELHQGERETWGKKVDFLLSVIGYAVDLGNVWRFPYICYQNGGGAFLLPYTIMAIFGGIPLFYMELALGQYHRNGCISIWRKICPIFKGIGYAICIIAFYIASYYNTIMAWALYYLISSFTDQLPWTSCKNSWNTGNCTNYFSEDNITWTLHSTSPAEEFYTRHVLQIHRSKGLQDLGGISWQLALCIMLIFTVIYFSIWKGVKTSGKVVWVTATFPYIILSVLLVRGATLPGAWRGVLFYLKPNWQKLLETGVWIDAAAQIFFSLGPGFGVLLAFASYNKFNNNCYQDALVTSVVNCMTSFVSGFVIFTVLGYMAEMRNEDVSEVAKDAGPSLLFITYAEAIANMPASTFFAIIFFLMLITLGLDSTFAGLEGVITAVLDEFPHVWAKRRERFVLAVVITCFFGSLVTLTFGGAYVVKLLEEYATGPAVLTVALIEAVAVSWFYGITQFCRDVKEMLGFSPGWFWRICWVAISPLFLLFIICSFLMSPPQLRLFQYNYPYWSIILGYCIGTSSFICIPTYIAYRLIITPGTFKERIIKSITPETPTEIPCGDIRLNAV
Sequence of 5ht6 (P50406 whole entry, species assumed): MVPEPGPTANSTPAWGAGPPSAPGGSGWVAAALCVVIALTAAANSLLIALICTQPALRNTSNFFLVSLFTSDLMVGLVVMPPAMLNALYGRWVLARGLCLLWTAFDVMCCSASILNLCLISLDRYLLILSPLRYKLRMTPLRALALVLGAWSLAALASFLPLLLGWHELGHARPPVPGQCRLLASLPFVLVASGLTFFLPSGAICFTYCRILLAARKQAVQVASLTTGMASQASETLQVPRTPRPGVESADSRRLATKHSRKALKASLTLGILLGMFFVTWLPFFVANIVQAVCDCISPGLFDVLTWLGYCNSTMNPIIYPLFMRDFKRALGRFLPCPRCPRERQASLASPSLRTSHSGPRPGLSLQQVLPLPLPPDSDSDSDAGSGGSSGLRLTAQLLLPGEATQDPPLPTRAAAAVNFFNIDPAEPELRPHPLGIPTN

COc1ccc(N2CCN(CCCNC(=O)Cn3c(=O)c4cccn4c4c(C)ccnc43)CC2)cc1 [Compound 1{3}, N-(3-(4-(4-Methoxyphenyl)piperazin-1-yl)propyl)-2-(1-methyl-6-oxopyrido[2,3-e]pyrrolo[1,2-a]pyrazin-5(6H)-yl)acetamide]
fraction unbound at 1 μM ([1]; plasma, human, 1 μM, read-out: bound to plasma protein (converted)): 0.0604 | fraction unbound at 10 μM ([1]; plasma, human, 10 μM, read-out: bound to plasma protein (converted)): 0.115 | solubility (physchem; aqueous buffer): > 90 µg/mL | solubility (physchem; pH 5): 96.6 µg/mL (≈ 198 µM) | solubility (physchem; pH 6.2): 90.6 µg/mL (≈ 185 µM) | Ki (MOR; Table 5): 1.58 µM | Ki (D3; Table 5): 0.25 µM | Ki (DOR; Table 5): 1.44 µM | fraction unbound at 1 μM ([2]; plasma, mouse, 1 μM, read-out: bound to plasma protein (converted)): 0.115 | fraction unbound at 10 μM ([2]; plasma, mouse, 10 μM, read-out: bound to plasma protein (converted)): 0.199 | Ki (M1; Table 5): > 10 µM | Ki (NET; Table 5): 0.685 µM | Ki (BZP Rat Brain Site; Table 5): > 10 µM | Ki (Alpha2A; Table 5): > 10 µM | Ki (H2; Table 5): 3.5 µM | Ki (H1; Table 5): 0.454 µM | Ki (D5; Table 5): > 10 µM | Ki (5ht6; Table 5): > 10 µM | Ki (5ht1a; Table 5): > 10 µM | Ki (5ht5a; Table 5): > 10 µM | Ki (Beta3; Table 5): > 10 µM | Ki (Alpha1D; Table 5): > 10 µM | Ki (5ht2c; Table 5): > 10 µM | Ki (5ht2a; Table 5): > 10 µM | Ki (5ht1d; Table 5): 0.702 µM | Ki (Beta2; Table 5): > 10 µM | Ki (Alpha2B; Table 5): 7.7 µM | Ki (SERT; Table 5): 5.33 µM | Ki (H4; Table 5): > 10 µM | Ki (5ht1b; Table 5): > 10 µM | Ki (D4; Table 5): > 10 µM | Ki (5ht1e; Table 5): > 10 µM | Ki (Alpha1A; Table 5): > 10 µM | Ki (D2; Table 5): 1.35 µM | Ki (5ht2b; Table 5): 1.92 µM | Ki (GabaA; Table 5): > 10 µM | Ki (M5; Table 5): 6.4 µM | Ki (Sigma2; Table 5): > 10 µM | Ki (5ht7; Table 5): > 10 µM | Ki (Beta1; Table 5): > 10 µM

Clc1ccc(CSc2nnc(-c3ccccn3)n2Cc2ccco2)cc1Cl [Compound 2{8}]
bound to plasma ([1]; human plasma): > 99% | solubility in aqueous buffer (physchem; pH 5.0): < 0.1 µg/mL | solubility in aqueous buffer (physchem; pH 6.2): 0.29 µg/mL (≈ 0.695 µM) | solubility in aqueous buffer (physchem; pH 7.4): 0.14 µg/mL (≈ 0.335 µM) | Ki (MOR; [3]): 1.9 µM | Ki (D3; Table 10): > 10 µM | Ki (DOR; [3]): 5.35 µM | bound to plasma ([2]; mouse plasma): > 99% | Ki (M1; Table 10): > 10 µM | Ki (NET; Table 10): 5.87 µM | Ki (BZP Rat Brain Site; Table 10): > 10 µM | Ki (Alpha2A; Table 10): > 10 µM | Ki (H2; Table 10): > 10 µM | Ki (H1; Table 10): > 10 µM | Ki (D5; Table 10): 7.02 µM | Ki (5ht6; Table 10): > 10 µM | Ki (5ht1a; Table 10): > 10 µM | Ki (5ht5a; Table 10): 4.99 µM | Ki (Beta3; Table 10): 7.31 µM | Ki (Alpha1D; Table 10): > 10 µM | Ki (5ht2c; Table 10): > 10 µM | Ki (5ht2a; Table 10): 3.79 µM | Ki (5ht1d; Table 10): > 10 µM | Ki (Beta2; Table 10): > 10 µM | Ki (Alpha2B; Table 10): 5.53 µM | Ki (SERT; Table 10): > 10 µM | Ki (H4; Table 10): > 10 µM | Ki (5ht1b; Table 10): > 10 µM | Ki (D4; Table 10): > 10 µM | Ki (5ht1e; Table 10): > 10 µM | Ki (Alpha1A; Table 10): > 10 µM | Ki (D2; Table 10): > 10 µM | Ki (5ht2b; Table 10): 1.24 µM | Ki (GabaA; Table 10): > 10 µM | Ki (M5; Table 10): 4.42 µM | Ki (Sigma2; Table 10): 2.91 µM | Ki (5ht7; Table 10): > 10 µM | Ki (Beta1; Table 10): > 10 µM
